Experimental data taken from US20250195475A1, “CDK2 INHIBITOR AND PREPARATION METHOD AND USE THEREOF” (INVENTISBIO CO., LTD., priority 2022, published 2025).

Each compound was assayed against CDK2/CyclinE1 (Homo sapiens (Human), UniProt P24941) (assay: CDK2 kinase assay (TR-FRET)). Details: CDK2/CyclinE1 0.5 nM, ATP 50 μM.
Assay type: biochemical
Method: (§1) The purpose of these assays is to evaluate the inhibition of small molecule inhibitors by using TR-FRET assay.
(§2) Compound Preparation. Dissslove the compounds into DMSO solution to make 10 mM DMSO stock. Serially dilute the stock solution from highest concentration down to lowest in DMSO to make the compound stock plate (100× stock plates). To make 5× compound intermediate plate, add 38 μL of assay buffer (50 mM HEPES, pH 7.5, 0.05 mg/mL BSA, 10 mM MgCl2, 1 mM EGTA, 0.01% Tween-20, 2 mM DTT) into each well of the V-bottom plate; then transfer 2 μL of the stock compound solution of each concentration from the compound stock plate (100× stock), and mix well.
(§3) Enzyme reaction. Transfer 2 μL compound from 5× intermediate plate into assay plate, then add 4 μL/well 2.5× Enzyme mix to assay plate, incubation for 10 min at room temperature. For positive control wells, add 4 μL/well assay buffer instead of Enzyme mix. Then add 4 μL/well 2.5× Substrate mix to assay plate, and incubation at 25° C. for 30 min at room temperature. After reaction, 10 μL 2× Detection mix (final 15 mM EDTA, 1× LANCE Detection Buffer, 0.5 nM Detection antibody) was added and incubated for 1 h prior to detection with excitation and emission at 320 and 665 nm (Tecan Spark® TR-FRET mode Tecan).
(§4) Inhibition rate (IR) of the tested compounds was determined by the following formula: IR (%)=(average High control−compound well)/(average High control−average Low control)*100%. Fit the compound IC50 from non-linear regression equation: Y=Bottom+(Top−Bottom)/(1+10^((Log IC50−X)*HillSlope)). X: Log of cpd concentration; Y: Inhibition rate (TR); Top and Bottom: Plateaus in same units as Y, log IC50: same log units as X; HillSlope: Slope factor or Hill slope.

| SMILES | IC50 [nM] |
| --- | --- |
| Cn1nccc1C(=O)Nc1cc([C@H]2CC[C@@H](OC(=O)NC3COC4(CCC4)C3)C2)[nH]n1 (single isomer, unassigned) [Compound 44] | 3.2 |
| CC(C)NC(=O)OC1COC(c2cc(NC(=O)Cc3cc(F)cc(F)c3)n[nH]2)C1 (stereo not shown) [Compound 24] | 1.8 |
| CC(C)NC(=O)O[C@@H]1COC(c2cc(NC(=O)Cc3ccc(OCCN4CCCC4)cc3)n[nH]2)C1 (stereo partly shown) [Compound 128] | 14.6 |
| Cc1occc1C(=O)Nc1cc([C@H]2C[C@@H](OC(=O)NC(C)C)CO2)[nH]n1 [Compound 129] | 11.8 |
| Cc1occc1C(=O)Nc1cc([C@@H]2C[C@H](OC(=O)NC(C)C)CO2)[nH]n1 [Compound 133] | 50.1 |
| CC(C)NC(=O)O[C@H]1CO[C@@H](c2cc(NC(=O)Cc3ccccc3S(C)(=O)=O)n[nH]2)C1 [Compound 134] | 2.2 |
| CC(C)NC(=O)O[C@@H]1CO[C@H](c2cc(NC(=O)Cc3ccccc3S(C)(=O)=O)n[nH]2)C1 [Compound 135] | 13.5 |
| CC(C)NC(=O)O[C@@H]1CC[C@H](C2=CC(NC(=O)[C@H]3C[C@@H]3[C@@H](C)O)=NC2)C1 [Compound 137] | 5.3 |
| Cn1nccc1C(=O)Nc1cc([C@H]2C[C@@H](OC(=O)NC3(C)CCC3)CO2)[nH]n1 [Compound 138] | 1 |
| C#C[C@H]1C[C@@H]1C(=O)Nc1cc([C@@H]2C[C@H](OC(=O)NC3(C)CC3)CO2)[nH]n1 [Compound 157] | 2.9 |
| C#C[C@H]1C[C@@H]1C(=O)Nc1cc([C@H]2C[C@@H](OC(=O)NC3(C)CCC3)CO2)[nH]n1 [Compound 158] | 1.1 |
| Cn1nccc1C(=O)Nc1cc([C@H]2C[C@@H](OC(=O)NC34CC(F)(C3)C4)CO2)[nH]n1 [Compound 159] | 1.6 |
| Cn1nccc1C(=O)Nc1cc([C@@H]2C[C@H](OC(=O)NC34CC(F)(C3)C4)CO2)[nH]n1 [Compound 160] | 5.3 |
| C#C[C@H]1C[C@@H]1C(=O)Nc1cc([C@H]2C[C@@H](OC(=O)NC(C)(C)C)CO2)[nH]n1 [Compound 166] | 0.9 |
| C#C[C@H]1C[C@@H]1C(=O)Nc1cc([C@@H]2C[C@H](OC(=O)NC(C)(C)C)CO2)[nH]n1 [Compound 167] | 1.4 |
| C#C[C@H]1C[C@@H]1C(=O)Nc1cc([C@H]2C[C@@H](OC(=O)NC(C)(C)CC)CO2)[nH]n1 [Compound 168] | 0.6 |

| SMILES | IC50 [nM] |
| --- | --- |
| C#C[C@H]1C[C@@H]1C(=O)Nc1cc([C@@H]2C[C@H](OC(=O)NC(C)(C)CC)CO2)[nH]n1 [Compound 169] | 1.9 |
| C#C[C@H]1C[C@@H]1C(=O)Nc1cc([C@H]2C[C@@H](OC(=O)NC3(C)CC3)CO2)[nH]n1 [Compound 170] | 0.8 |
| C#C[C@H]1C[C@@H]1C(=O)Nc1cc([C@@H]2C[C@H](OC(=O)NC3(C)CCC3)CO2)[nH]n1 [Compound 171] | 1.3 |
| CCC1(NC(=O)O[C@@H]2CO[C@H](c3cc(NC(=O)c4ccnn4C)n[nH]3)C2)CCC1 [Compound 178] | 1.4 |
| C#C[C@H]1C[C@@H]1C(=O)Nc1cc([C@H]2C[C@@H](OC(=O)NC3(C)COC3)CO2)[nH]n1 [Compound 182] | 4 |
| CCC1(NC(=O)O[C@H]2CO[C@@H](c3cc(NC(=O)c4ccnn4C)n[nH]3)C2)CCC1 [Compound 183] | 0.5 |
| CCC(C)(C)NC(=O)O[C@H]1CO[C@@H](c2cc(NC(=O)c3ccnn3C)n[nH]2)C1 [Compound 190] | 0.6 |
| C#C[C@H]1C[C@@H]1C(=O)Nc1cc([C@@H]2C[C@H](OC(=O)NC3(C)COC3)CO2)[nH]n1 [Compound 197] | 15.7 |
| C#CC1(NC(=O)O[C@@H]2CO[C@H](c3cc(NC(=O)c4ccnn4C)n[nH]3)C2)CCC1 [Compound 198] | 6.8 |
| COCc1cc(C(=O)Nc2cc([C@H]3CC[C@@H](OC(=O)N[C@H]4C[C@@]5(CCOC5)C4)C3)[nH]n2)n(C)n1 [Compound 201] | 4.6 |
| COCc1cc(C(=O)Nc2cc([C@H]3CC[C@@H](OC(=O)N[C@H]4C[C@]5(CCOC5)C4)C3)[nH]n2)n(C)n1 [Compound 202] | 3.9 |
| CCC1(NC(=O)O[C@H]2CO[C@@H](c3cc(NC(=O)c4ccnn4C)n[nH]3)C2)CC1 [Compound 203] | 0.9 |
| CCC1(NC(=O)O[C@@H]2CO[C@H](c3cc(NC(=O)c4ccnn4C)n[nH]3)C2)CC1 [Compound 204] | 1 |
| Cn1nccc1C(=O)Nc1cc([C@H]2C[C@@H](OC(=O)NC3(CF)CCC3)CO2)[nH]n1 [Compound 211] | 1.4 |
| Cn1nccc1C(=O)Nc1cc([C@@H]2C[C@H](OC(=O)NC3(CF)CCC3)CO2)[nH]n1 [Compound 216] | 1.8 |

More lines, now with the values ahead:

| IC50 [nM] | SMILES |
| --- | --- |
| 1.3 | COC[C@H]1C[C@@H]1C(=O)Nc1cc([C@H]2CC[C@@H](OC(=O)NC34CC(F)(C3)C4)C2)[nH]n1 [Compound 125] |
| 3.6 | CC(C)NC(=O)O[C@@H]1CC[C@H](c2cc(NC(=O)[C@@H]3C[C@@H](C)N(S(C)(=O)=O)C3)n[nH]2)C1 [Compound 127] |
| 7.2 | CC(C)NC(=O)O[C@@H]1CO[C@H](c2cc(NC(=O)[C@@H]3CCN(S(=O)(=O)C4CC4)C3)n[nH]2)C1 [Compound 132] |
| 0.7 | CC1(NC(=O)O[C@@H]2CC[C@H](c3cc(NC(=O)[C@@H]4CCN(S(=O)(=O)C5CC5)C4)n[nH]3)C2)CCC1 [Compound 139] |
| 0.7 | CC1(NC(=O)O[C@@H]2CC[C@H](c3cc(NC(=O)[C@@H]4CCN(S(=O)(=O)C5CC5)C4)n[nH]3)C2)CC1 [Compound 140] |
| 0.5 | C#C[C@H]1C[C@@H]1C(=O)Nc1cc([C@H]2CC[C@@H](OC(=O)NC3(C)CC3)C2)[nH]n1 [Compound 141] |
| 1.6 | COC[C@H]1C[C@@H]1C(=O)Nc1cc([C@H]2CC[C@@H](OC(=O)NC34CC(C(F)F)(C3)C4)C2)[nH]n1 [Compound 142] |
| 0.9 | C#C[C@H]1C[C@@H]1C(=O)Nc1cc([C@@H]2CC[C@H](OC(=O)NC(C)C)C2)[nH]n1 [Compound 145] |
| 4.8 | CC(C)NC(=O)O[C@@H]1CC[C@H](c2cc(NC(=O)C3CC3OCC(F)F)n[nH]2)C1 (stereo partly shown) [Compound 147] |
| 4.5 | C#C[C@H]1C[C@@H]1C(=O)Nc1cc([C@H]2C[C@@H](OC(=O)N[C@@H](C)CC)CO2)[nH]n1 [Compound 155] |
| 6 | C#C[C@H]1C[C@@H]1C(=O)Nc1cc([C@@H]2C[C@H](OC(=O)N[C@@H](C)CC)CO2)[nH]n1 [Compound 156] |
| 1 | CC(C)NC(=O)O[C@@H]1CC[C@H](c2cc(NC(=O)[C@H]3C[C@@H]3C#CC(F)F)n[nH]2)C1 [Compound 161] |
| 109 | Cc1c(C2CC2C(=O)Nc2cc([C@H]3CC[C@@H](OC(=O)NC(C)C)C3)[nH]n2)cnn1C (stereo partly shown) [Compound 162] |
| 1.5 | C#C[C@H]1C[C@@H]1C(=O)Nc1cc([C@H]2C[C@@H](OC(=O)NC(C)C)CO2)[nH]n1 [Compound 164] |
| 4.7 | C#C[C@H]1C[C@@H]1C(=O)Nc1cc([C@@H]2C[C@H](OC(=O)NC(C)C)CO2)[nH]n1 [Compound 165] |
| 1.2 | CC(C)NC(=O)O[C@@H]1CC[C@H](c2cc(NC(=O)C3CN(S(=O)(=O)C4CC4)CC3C)n[nH]2)C1 (stereo partly shown) [Compound 172] |
| 61.1 | CC(C)NC(=O)O[C@@H]1CC[C@H](c2cc(NC(=O)C3CC34CCOC4)n[nH]2)C1 (stereo partly shown) [Compound 174] |
| 174 | CC(C)NC(=O)O[C@@H]1CC[C@H](c2cc(NC(=O)C3CC34CCOC4)n[nH]2)C1 (stereo partly shown) [Compound 175] |
| 33 | CC(C)NC(=O)O[C@@H]1CC[C@H](c2cc(NC(=O)C3CC34CCOC4)n[nH]2)C1 (stereo partly shown) [Compound 176] |
| 1 | CC#C[C@H]1C[C@@H]1C(=O)Nc1cc([C@H]2CC[C@@H](OC(=O)NC(C)C)C2)[nH]n1 [Compound 177] |
| 12.6 | CC(C)NC(=O)O[C@@H]1CC[C@H](c2cc(NC(=O)[C@@H]3C[C@@H](C(C)C)N(S(C)(=O)=O)C3)n[nH]2)C1 [Compound 179] |
| 0.5 | COC[C@H]1C[C@@H]1C(=O)Nc1cc([C@@H]2CC[C@H](OC(=O)NC3(C)CC3)C2)[nH]n1 [Compound 184] |
| 0.7 | C#C[C@H]1C[C@@H]1C(=O)Nc1cc([C@H]2CC[C@@H](OC(=O)NC34CC(F)(C3)C4)C2)[nH]n1 [Compound 194] |
| 29.7 | Cc1c(C2CC2C(=O)Nc2cc([C@H]3CC[C@@H](OC(=O)NC4(C)CCC4)C3)[nH]n2)cnn1C (stereo partly shown) [Compound 217] |
| 0.6 | Cc1c([C@@H]2C[C@H]2C(=O)Nc2cc([C@H]3CC[C@@H](OC(=O)NC4(C)CCC4)C3)[nH]n2)cnn1C [Compound 218] |
| 0.5 | C#C[C@H]1C[C@@H]1C(=O)Nc1cc([C@@H]2CC[C@H](OC(=O)NC3(C)CCC3)C2)[nH]n1 [Compound 219] |
| 1.1 | C#C[C@H]1C[C@@H]1C(=O)Nc1cc([C@@H]2CC[C@H](OC(=O)NC3(C)COC3)C2)[nH]n1 [Compound 222] |
| 0.5 | C#C[C@H]1C[C@@H]1C(=O)Nc1cc([C@@H]2CC[C@H](OC(=O)NC3(C)CC3)C2)[nH]n1 [Compound 223] |

The compounds below were run against CDK1/CyclinB1 (Homo sapiens (Human), UniProt P06493) (assay: CDK1 kinase assay (TR-FRET)). Details: CDK1/CyclinB 7.5 nM, ATP 17 μM.
Assay type: biochemical
Method: as §1, §2, §3, §4

CDK1/CyclinB1, sequence (P06493 whole entry): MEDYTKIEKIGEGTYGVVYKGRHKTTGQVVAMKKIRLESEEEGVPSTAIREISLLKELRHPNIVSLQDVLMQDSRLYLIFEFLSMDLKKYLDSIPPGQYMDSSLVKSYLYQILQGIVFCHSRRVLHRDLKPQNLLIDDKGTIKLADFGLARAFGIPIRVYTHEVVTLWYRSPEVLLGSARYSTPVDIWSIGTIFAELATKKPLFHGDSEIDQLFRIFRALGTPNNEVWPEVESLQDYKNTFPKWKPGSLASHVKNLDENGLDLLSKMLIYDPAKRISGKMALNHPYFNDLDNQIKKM
CDK1/CyclinB1, sequence (P14635 whole entry partner): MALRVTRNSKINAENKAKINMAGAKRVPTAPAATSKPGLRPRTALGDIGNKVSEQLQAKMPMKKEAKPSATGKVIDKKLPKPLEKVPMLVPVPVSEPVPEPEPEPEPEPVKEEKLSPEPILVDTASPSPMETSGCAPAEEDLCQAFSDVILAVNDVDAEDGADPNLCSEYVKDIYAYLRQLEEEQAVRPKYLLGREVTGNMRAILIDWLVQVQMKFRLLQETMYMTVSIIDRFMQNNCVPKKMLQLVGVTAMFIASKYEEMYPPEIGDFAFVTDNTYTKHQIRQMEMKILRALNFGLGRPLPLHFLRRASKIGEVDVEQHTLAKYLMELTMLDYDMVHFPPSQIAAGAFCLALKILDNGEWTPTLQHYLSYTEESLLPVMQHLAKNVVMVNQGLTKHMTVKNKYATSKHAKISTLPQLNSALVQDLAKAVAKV

| SMILES | IC50 [nM] |
| --- | --- |
| Cn1nccc1C(=O)Nc1cc([C@H]2CC[C@@H](OC(=O)NC3COC4(CCC4)C3)C2)[nH]n1 (single isomer, unassigned) [Compound 44] | 255 |
| CC(C)NC(=O)OC1COC(c2cc(NC(=O)Cc3cc(F)cc(F)c3)n[nH]2)C1 (stereo not shown) [Compound 24] | 102 |
